Laboratory results: ChEMBL document CHEMBL5653631, “A Potent and Selective ULK1 Inhibitor Suppresses Autophagy and Sensitizes Cancer Cells to Nutrient Stress” (iScience, 2018)
One block for each compound: values may come before it.

Key:
[1] = target: T1, Mitogen-activated protein kinase 13 (Homo sapiens) (UniProt O15264); assay: Inhibition of human recombinant p38delta at 500 nM in presence of ATP by radiometric assay relative to control
T1 sequence (whole entry): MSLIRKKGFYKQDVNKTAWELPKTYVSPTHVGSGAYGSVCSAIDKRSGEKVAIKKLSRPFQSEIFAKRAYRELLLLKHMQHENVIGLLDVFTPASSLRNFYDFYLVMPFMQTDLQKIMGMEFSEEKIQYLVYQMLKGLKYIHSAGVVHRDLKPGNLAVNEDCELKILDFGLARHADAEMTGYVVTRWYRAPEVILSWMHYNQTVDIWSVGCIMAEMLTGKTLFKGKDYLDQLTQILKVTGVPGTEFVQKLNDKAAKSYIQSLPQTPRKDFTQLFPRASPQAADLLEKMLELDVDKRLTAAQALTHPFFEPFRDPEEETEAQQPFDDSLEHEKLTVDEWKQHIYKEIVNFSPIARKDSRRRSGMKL

[2] = target: Proto-oncogene tyrosine-protein kinase Src (Homo sapiens) (UniProt P12931); assay: Inhibition of human recombinant SRC at 500 nM related to control ULK1
Chain of Proto-oncogene tyrosine-protein kinase Src (Homo sapiens) (P12931 2-536 limits assumed): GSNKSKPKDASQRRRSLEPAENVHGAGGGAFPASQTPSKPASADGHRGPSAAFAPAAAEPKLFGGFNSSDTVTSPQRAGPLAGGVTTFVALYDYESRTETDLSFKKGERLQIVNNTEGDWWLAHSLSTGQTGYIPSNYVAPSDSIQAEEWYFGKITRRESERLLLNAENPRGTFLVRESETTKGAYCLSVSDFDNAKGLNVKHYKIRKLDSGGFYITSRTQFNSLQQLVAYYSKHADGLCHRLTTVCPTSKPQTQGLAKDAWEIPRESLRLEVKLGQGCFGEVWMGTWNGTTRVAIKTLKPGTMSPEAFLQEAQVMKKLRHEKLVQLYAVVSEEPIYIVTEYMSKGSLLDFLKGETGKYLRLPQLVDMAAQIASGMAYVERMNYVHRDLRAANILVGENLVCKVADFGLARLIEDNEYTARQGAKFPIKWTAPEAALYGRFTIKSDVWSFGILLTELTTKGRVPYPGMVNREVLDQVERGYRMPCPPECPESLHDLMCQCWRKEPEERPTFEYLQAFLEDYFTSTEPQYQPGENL

[3] = target: Serine/threonine-protein kinase NIM1 (Homo sapiens) (UniProt Q8IY84); assay: Inhibition of human recombinant NIM1 at 15 nM related to control ULK1
Chain of Serine/threonine-protein kinase NIM1 (Homo sapiens) (Q8IY84 whole entry): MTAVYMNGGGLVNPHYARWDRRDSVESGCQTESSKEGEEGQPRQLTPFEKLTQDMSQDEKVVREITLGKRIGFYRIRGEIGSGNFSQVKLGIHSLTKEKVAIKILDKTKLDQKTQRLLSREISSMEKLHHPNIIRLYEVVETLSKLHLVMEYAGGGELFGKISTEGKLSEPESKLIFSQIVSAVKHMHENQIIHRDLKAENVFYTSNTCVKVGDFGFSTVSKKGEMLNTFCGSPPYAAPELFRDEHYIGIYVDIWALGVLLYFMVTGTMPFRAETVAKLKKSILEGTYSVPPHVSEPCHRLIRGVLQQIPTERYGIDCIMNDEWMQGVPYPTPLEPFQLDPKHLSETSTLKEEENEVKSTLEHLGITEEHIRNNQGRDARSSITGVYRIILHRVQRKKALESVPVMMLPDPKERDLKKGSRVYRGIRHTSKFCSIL

[4] = target: T2, Tyrosine-protein kinase JAK3 (Homo sapiens) (UniProt P52333); assay: Inhibition of human recombinant JAK3 at 15 nM in presence of ATP by radiometric assay relative to control
T2 sequence (whole entry): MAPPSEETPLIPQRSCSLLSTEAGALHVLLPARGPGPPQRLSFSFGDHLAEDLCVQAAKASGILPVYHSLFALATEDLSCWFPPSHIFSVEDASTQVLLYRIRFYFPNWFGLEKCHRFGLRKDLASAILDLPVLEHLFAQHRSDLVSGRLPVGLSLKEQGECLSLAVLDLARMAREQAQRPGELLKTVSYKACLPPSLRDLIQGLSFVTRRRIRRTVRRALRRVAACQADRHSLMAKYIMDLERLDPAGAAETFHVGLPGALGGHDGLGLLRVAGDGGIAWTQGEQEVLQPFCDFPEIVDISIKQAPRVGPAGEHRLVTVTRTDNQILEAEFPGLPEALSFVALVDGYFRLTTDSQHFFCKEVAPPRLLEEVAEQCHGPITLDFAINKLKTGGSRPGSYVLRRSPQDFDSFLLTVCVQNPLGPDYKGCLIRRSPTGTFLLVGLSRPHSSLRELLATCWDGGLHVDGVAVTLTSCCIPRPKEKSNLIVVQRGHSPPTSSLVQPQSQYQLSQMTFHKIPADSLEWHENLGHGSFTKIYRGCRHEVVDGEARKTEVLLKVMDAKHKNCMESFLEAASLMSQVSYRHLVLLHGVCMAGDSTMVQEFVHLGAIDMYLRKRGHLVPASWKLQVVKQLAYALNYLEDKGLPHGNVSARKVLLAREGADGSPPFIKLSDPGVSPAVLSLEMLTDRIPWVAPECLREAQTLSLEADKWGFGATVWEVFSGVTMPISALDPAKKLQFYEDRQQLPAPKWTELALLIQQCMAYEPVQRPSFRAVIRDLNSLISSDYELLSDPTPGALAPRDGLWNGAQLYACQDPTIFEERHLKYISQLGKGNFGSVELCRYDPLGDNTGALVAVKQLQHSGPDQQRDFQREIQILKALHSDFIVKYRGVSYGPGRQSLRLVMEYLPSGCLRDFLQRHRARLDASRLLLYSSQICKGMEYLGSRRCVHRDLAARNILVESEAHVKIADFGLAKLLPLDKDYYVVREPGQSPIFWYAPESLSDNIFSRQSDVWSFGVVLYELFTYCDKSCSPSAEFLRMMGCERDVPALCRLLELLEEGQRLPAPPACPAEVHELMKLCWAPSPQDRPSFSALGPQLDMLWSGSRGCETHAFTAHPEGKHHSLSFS

[5] = target: T3, Serine/threonine-protein kinase Chk1 (Homo sapiens) (UniProt O14757); assay: Inhibition of human recombinant CHK1 at 15 nM related to control ULK1
T3 sequence (whole entry): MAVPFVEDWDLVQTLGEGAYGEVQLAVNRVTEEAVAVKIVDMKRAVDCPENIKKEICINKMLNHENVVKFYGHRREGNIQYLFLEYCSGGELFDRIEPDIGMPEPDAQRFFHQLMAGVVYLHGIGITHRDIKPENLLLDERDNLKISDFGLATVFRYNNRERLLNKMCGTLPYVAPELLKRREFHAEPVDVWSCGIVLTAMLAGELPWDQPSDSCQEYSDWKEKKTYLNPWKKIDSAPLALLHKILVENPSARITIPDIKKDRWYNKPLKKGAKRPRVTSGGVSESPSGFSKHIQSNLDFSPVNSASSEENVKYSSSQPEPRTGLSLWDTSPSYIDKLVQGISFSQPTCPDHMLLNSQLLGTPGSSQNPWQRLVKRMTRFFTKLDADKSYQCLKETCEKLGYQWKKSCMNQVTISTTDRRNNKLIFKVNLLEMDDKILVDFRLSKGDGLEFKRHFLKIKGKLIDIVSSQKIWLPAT

[6] = target: T4, Tyrosine-protein kinase TXK (Homo sapiens) (UniProt P42681); assay: Inhibition of human recombinant TXK at 40 nM in presence of ATP by radiometric assay relative to control
T4 sequence (whole entry): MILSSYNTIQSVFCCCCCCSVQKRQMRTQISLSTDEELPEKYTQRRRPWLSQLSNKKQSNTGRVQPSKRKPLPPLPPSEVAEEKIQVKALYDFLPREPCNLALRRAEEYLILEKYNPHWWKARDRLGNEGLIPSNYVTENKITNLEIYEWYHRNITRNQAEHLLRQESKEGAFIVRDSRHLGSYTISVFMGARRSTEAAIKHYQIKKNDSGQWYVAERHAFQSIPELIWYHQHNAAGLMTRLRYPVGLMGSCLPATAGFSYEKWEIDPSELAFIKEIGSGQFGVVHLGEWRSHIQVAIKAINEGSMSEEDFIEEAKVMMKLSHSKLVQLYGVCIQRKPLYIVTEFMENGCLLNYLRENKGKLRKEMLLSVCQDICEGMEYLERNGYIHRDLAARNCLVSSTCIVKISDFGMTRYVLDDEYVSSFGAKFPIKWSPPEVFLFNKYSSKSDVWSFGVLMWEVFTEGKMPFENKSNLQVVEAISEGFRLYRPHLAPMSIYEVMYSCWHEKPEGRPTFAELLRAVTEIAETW

inhibition [1]: 19% | fold change (FC) [2]: 0.26
SMILES: CNC(=O)c1ccccc1Oc1nc(Nc2cc(OC)c(OC)c(OC)c2)ncc1Br

fold change (FC) [3]: 0.07 | inhibition [4]: 0% | fold change (FC) [5]: 0
SMILES: CC(C)[C@H](NC(=O)c1cc(-c2cnn3cc(-c4ccc(OCCN5CCCCC5)cc4)cnc23)cs1)C(F)(F)F

inhibition [6]: 13%
SMILES: O=C(N[C@@H](C1CC1)C(F)(F)F)c1cc(-c2cnn3cc(-c4ccc(F)cc4)cnc23)cs1
